Test results taken from patent US20050203102A1, “antibacterial agents” (priority 2004, published 2005).
Values after ≈ are worked out from the molar mass of the structure shown.

Assays:
Test in all cases: Antimicrobial testing, Agar Dilution Method (NCCLS), MIC
Type in all cases: cell-based
S. aureus MRO 00001 = conditions: Staphylococcus aureus, MRO00001, Mueller Hinton Agar, 35° C., 20 hours, read-out: Antimicrobial Screening (MIC) S. aureus MRO 00001
Protocol: (§1) Briefly, the compounds of invention were weighed, dissolved in Dimethyl Sulfoxide, serially diluted in the same solvent and then incorporated into molten Mueller Hinton Agar in a petridish before solidification, with each petridish containing a different concentration of a compound.
(§2) The Bacterial Inoculum was prepared by touching the tops of 3 to 5 well isolated bacterial colonies with the same morphological appearance from an 18 hour old culture with an inoculating loop, transferring the growth to a tube containing 5 ml of normal saline and adjusting the turbidity of the saline suspension to 0.5 Macfarland Turbidity Standard equivalent to a bacterial population of 1.5×10^8 colony forming units (CFU) per millilitre of suspension.
(§3) The bacterial inoculum prepared in the above manner was inoculated onto petri dishes containing Mueller Hinton Agar which had earlier been incorporated with different dilutions of the compounds of invention by a Multipoint Inoculator with each inoculum spot containing approximately 1×10^4 colony forming units (CFU) of bacteria.
(§4) The inoculated petridishes were incubated at 35° C. in an ambient atmosphere for 20 hours. Petridishes containing different concentrations of Vancomycin and Oxacillin and inoculated with Staphylococcus aureus, Coagulase Negative Staphylococci and Enterococci were incubated for 24 hours.
(§5) The following minimum inhibitory concentrations (μg/ml) were obtained for representative compounds of the invention which are given in the following table: […]

E. faecium ATCC 700221 = conditions: Enterococcus faecium, ATCC700221, Mueller Hinton Agar, 35° C., 20 hours, read-out: Antimicrobial Screening (MIC) E. faecium ATCC 700221
Protocol: as §1, §2, §3, §4, §5

E. faecalis ATCC 29212 = conditions: Enterococcus faecalis, ATCC29212, Mueller Hinton Agar, 35° C., 20 hours, read-out: Antimicrobial Screening (MIC) E. faecalis ATCC 29212
Protocol: as §1, §2, §3, §4, §5

S. epidermidis MRO 02002 = conditions: Staphylococcus epidermidis, MRO02002, Mueller Hinton Agar, 35° C., 20 hours, read-out: Antimicrobial Screening (MIC) S. epidermidis MRO 02002
Protocol: as §1, §2, §3, §4, §5

Row | Compound | MIC (S. aureus MRO 00001) [mg/L] | MIC (E. faecium ATCC 700221) [mg/L] | MIC (E. faecalis ATCC 29212) [mg/L] | MIC (S. epidermidis MRO 02002) [mg/L]
1 | CCOC(=O)NC[C@H]1CN(c2ccc(N3CCN(c4ccc(/C=C5/SC(=S)N(CC(=O)O)C5=O)cc4)CC3)c(F)c2)C(=O)O1 [Example 12] | > 16 | > 16 | > 16 | > 16
2 | CCOC(=O)NC[C@H]1CN(c2ccc(N3CCN(c4ccc(CC5C(=O)Nc6ccccc65)cc4)CC3)c(F)c2)C(=O)O1 (some centres unmarked) [Example 15] | > 16 | > 16 | > 16 | > 16
3 | CCOC(=O)NC[C@H]1CN(c2ccc(N3CCN(c4ccc(CC5SC(=S)NC5=O)cc4)CC3)c(F)c2)C(=O)O1 (some centres unmarked) [Example 16] | > 16 | > 16 | > 16 | > 16
4 | CC(=O)NC[C@H]1CN(c2ccc(N3CCN(c4ccc(CC5SC(=O)NC5=O)cc4)CC3)c(F)c2)C(=O)O1 (some centres unmarked) [Example 7] | 8 (≈ 14.8 µM) | 8 (≈ 14.8 µM) | 8 (≈ 14.8 µM) | 8 (≈ 14.8 µM)
5 | CCOC(=O)NC[C@H]1CN(c2ccc(N3CCN(c4ccc(/C=C5/SC(=S)NC5=O)cc4)CC3)c(F)c2)C(=O)O1 [Example 13] | > 16 | > 16 | > 16 | > 16
6 | CC(=O)NC[C@H]1CN(c2ccc(N3CCN(c4ccc(/C=C5\C(=O)Nc6ccccc65)cc4)CC3)c(F)c2)C(=O)O1 [Example 3] | > 16 | 16 (≈ 28.8 µM) | > 16 | > 16
7 | COC(=O)NC[C@H]1CN(c2ccc(N3CCN(c4ccc(CC5SC(=O)NC5=O)cc4)CC3)c(F)c2)C(=O)O1 (stereo partly drawn) [Example 14, [(5S)-3-[3-fluoro-4-(4-(5-methy-1,3-thiazolidine-2,4-dione)phenylpiperazin-1-yl)phenyll-1,3-oxazolidin-2-one-5-methyl carbamate] | 8 (≈ 14.3 µM) | 4 (≈ 7.17 µM) | 8 (≈ 14.3 µM) | 8 (≈ 14.3 µM)
8 | COC(=O)NC[C@H]1CN(c2ccc(N3CCN(c4ccc(/C=C5/SC(=S)N(CC(=O)O)C5=O)cc4)CC3)c(F)c2)C(=O)O1 [Example 10] | 8 (≈ 12.7 µM) | 8 (≈ 12.7 µM) | 8 (≈ 12.7 µM) | 8 (≈ 12.7 µM)
9 | COC(=O)NC[C@H]1CN(c2ccc(N3CCN(c4ccc(/C=C5/SC(=S)NC5=O)cc4)CC3)c(F)c2)C(=O)O1 [Example 11] | > 16 | > 16 | > 16 | > 16

The next compounds have a lower MIC (S. aureus MRO 00001) than those just listed; values first:

Row | MIC (S. aureus MRO 00001) [mg/L] | MIC (E. faecium ATCC 700221) [mg/L] | MIC (E. faecalis ATCC 29212) [mg/L] | MIC (S. epidermidis MRO 02002) [mg/L] | Compound
10 | 2 (≈ 3.26 µM) | 2 (≈ 3.26 µM) | 2 (≈ 3.26 µM) | 2 (≈ 3.26 µM) | CC(=O)NC[C@H]1CN(c2ccc(N3CCN(c4ccc(/C=C5/SC(=S)N(CC(=O)O)C5=O)cc4)CC3)c(F)c2)C(=O)O1 [Example 2]
11 | 1 (≈ 1.8 µM) | 1 (≈ 1.8 µM) | 2 (≈ 3.6 µM) | 1 (≈ 1.8 µM) | CC(=O)NC[C@H]1CN(c2ccc(N3CCN(c4ccc(/C=C5/SC(=S)NC5=O)cc4)CC3)c(F)c2)C(=O)O1 [Example 5]
12 | 1 (≈ 1.8 µM) | 0.5 (≈ 0.9 µM) | 1 (≈ 1.8 µM) | 2 (≈ 3.6 µM) | COC(=O)NC[C@H]1CN(c2ccc(N3CCN(c4ccc(/C=C5\SC(=O)NC5=O)cc4)CC3)c(F)c2)C(=O)O1 [Example 9, (S)-N-3-13-fluoro-4-(4-(5-methylene-1,3-thiazolidine-2,4-dione)phenylpiperazin-1-yl)phenyll-1,3-oxazolidin-2-one-5-methyl carbamate]
13 | 1 (≈ 2.27 µM) | 1 (≈ 2.27 µM) | 2 (≈ 4.54 µM) | 1 (≈ 2.27 µM) | CC(=O)NC[C@H]1CN(c2ccc(N3CCN(c4ccc(C=O)cc4)CC3)c(F)c2)C(=O)O1 [Example 1]
14 | 4 (≈ 6.97 µM) | 4 (≈ 6.97 µM) | 4 (≈ 6.97 µM) | 4 (≈ 6.97 µM) | COC(=O)NC[C@H]1CN(c2ccc(N3CCN(c4ccc(CC5C(=O)Nc6ccccc65)cc4)CC3)c(F)c2)C(=O)O1 (some centres unmarked) [Example 17]
15 | 1 (≈ 1.85 µM) | 1 (≈ 1.85 µM) | 1 (≈ 1.85 µM) | 1 (≈ 1.85 µM) | CC(=O)NC[C@H]1CN(c2ccc(N3CCN(c4ccc(/C=C5/SC(=O)NC5=O)cc4)CC3)c(F)c2)C(=O)O1 [Example 4]
16 | 0.5 (≈ 0.875 µM) | 0.5 (≈ 0.875 µM) | 0.5 (≈ 0.875 µM) | 0.5 (≈ 0.875 µM) | COC(=S)NC[C@H]1CN(c2ccc(N3CCN(c4ccc(/C=C5\SC(=O)NC5=O)cc4)CC3)c(F)c2)C(=O)O1 [Example 8, (S)-N-3-[3-fluoro-4-(4-(5-methylene-1,3-thiazolidine-2,4-dione)phenylpiperazin-1-yl)phenyll-1,3-oxazolidin-2-one-5-methylthio carbamate]
17 | 4 (≈ 7.17 µM) | 4 (≈ 7.17 µM) | 4 (≈ 7.17 µM) | 4 (≈ 7.17 µM) | CC(=O)NC[C@H]1CN(c2ccc(N3CCN(c4ccc(CC5C(=O)Nc6ccccc65)cc4)CC3)c(F)c2)C(=O)O1 (some centres unmarked) [Example 6]
